Biological target: SOS1:KRAS (G12C) interaction (Homo sapiens (Human), UniProt Q07889)
Test: SOS1 KRas(G12C) FRET Assay
Assay type: binding
Details: 0.5 nM His10-SOS1 (res. 564-1049), 2.5 nM GST-KRAS G12C (res. 1-169), 2 hrs at RT
Method: Inhibition of the SOS 1:KRAS interaction was measured using purified GST-tagged KRAS (res. 1-169, G12C, purified based on Hillig, et al., Proc Natl Acad Sci USA (2019); 116(7):2551-2560) and recombinant His10-SOS1 (res. 564-1049; purified based on Hillig, et al.). The final assay was performed at 20 uL with 0.5 nM SOS1 protein and 2.5 nM KRAS protein in a buffer of PBS, 0.1% BSA, 5 mM MgCh, 0.0025% Igepal, 100 mM KF, 5 mM DTT in a white 384 square well OptiPlate (PerkinElmer, Cat. 6007290). A 2x KRAS working solution was prepared in an assay buffer containing 5 nM GST-KRAS G12C and 2 nM anti-GST-Eu(K) (Cisbio, Cat. 61GSTKLA) and pre-incubated for 15 minutes at 25° C. […] The final DMSO concentration is 0.5%. Plates were incubated at RT for 2 hrs before the FRET signal was measured using Envision at emission 665 nm and 615 nm. FRET signal was converted to percentage of protein-protein interaction using the following equation:
• C: signal with compound treatment • P: signal for positive control (DMSO) • N: signal for negative control (no SOS1 added)
IC50 and Hill coefficients were obtained using Graph Pad Prism (Graph Pad software, Inc, USA) with non-linear regression analysis.

SOS1:KRAS (G12C) interaction, sequence (Q07889 564-1049, stated change not applied): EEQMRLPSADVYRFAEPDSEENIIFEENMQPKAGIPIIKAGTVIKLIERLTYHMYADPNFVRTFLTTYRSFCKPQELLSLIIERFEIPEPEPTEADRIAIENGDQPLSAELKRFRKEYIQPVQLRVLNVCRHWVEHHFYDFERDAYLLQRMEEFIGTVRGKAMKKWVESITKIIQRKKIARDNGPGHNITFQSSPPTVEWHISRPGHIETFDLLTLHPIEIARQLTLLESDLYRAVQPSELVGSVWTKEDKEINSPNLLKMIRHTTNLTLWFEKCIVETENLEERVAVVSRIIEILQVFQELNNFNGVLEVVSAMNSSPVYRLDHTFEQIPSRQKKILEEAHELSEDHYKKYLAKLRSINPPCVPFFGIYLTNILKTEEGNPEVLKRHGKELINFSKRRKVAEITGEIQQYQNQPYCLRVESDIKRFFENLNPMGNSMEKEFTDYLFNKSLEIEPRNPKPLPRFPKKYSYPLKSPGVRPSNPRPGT

IC50 [nM] | Structure (SMILES)
25.9 | Cc1c([C@@H](C)NC(=O)c2cn(C3CCOCC3)c(=O)cc2NC2[C@@H]3C[C@H]2CN(C)C3)cccc1C(F)(F)F (single isomer, unassigned) [Example 22]
18 | Cc1c([C@@H](C)NC(=O)c2cn(C3CCOCC3)c(=O)cc2N[C@H]2CCCN(C)CC2)cccc1C(F)(F)F (single isomer, unassigned) [Example 33]
22.9 | Cc1c([C@@H](C)NC(=O)c2cn(C3CCOCC3)c(=O)cc2N[C@@H]2CCCN(C)CC2)cccc1C(F)(F)F (single isomer, unassigned) [Example 34]
13 | C[C@@H](NC(=O)c1cn([C@H]2C[C@@H]2C2CC2)c(=O)cc1NC1CCN(C)CC1)c1cccc(C(F)F)c1F (single isomer, unassigned) [Example 73]
7940 | COc1ccc([C@@H](C)NC(=O)c2cn(C3(C(F)F)CC3)c(=O)cc2NC2CCN(C)CC2)c(F)c1C(F)(F)F (single isomer, unassigned) [Example 165]
193 | COc1ccc([C@H](C)NC(=O)c2cn(C3(C(F)F)CC3)c(=O)cc2NC2CCN(C)CC2)c(F)c1C(F)(F)F (single isomer, unassigned) [Example 166]
1250 | Cc1cc([C@@H](C)NC(=O)c2cn(C3(C(F)F)CC3)c(=O)cc2NC2CCN(C)CC2)cc(C(F)(F)F)n1 (single isomer, unassigned) [Example 171]
6.1 | C[C@@H](NC(=O)c1cn(C2(C(F)F)CC2)c(=O)cc1N[C@H]1CCCn2cncc21)c1cccc(C(F)F)c1F (single isomer, unassigned) [Example 183]
55.8 | C[C@@H](NC(=O)c1cn(C2(C(F)F)CC2)c(=O)cc1N[C@@H]1CCCn2cncc21)c1cccc(C(F)F)c1F (single isomer, unassigned) [Example 184]
151 | Cc1c(C#N)cccc1[C@@H](C)NC(=O)c1cn([C@@H]2[C@@H](C)C2(F)F)c(=O)cc1N[C@H]1[C@@H]2CN(C)C[C@@H]21 (single isomer, unassigned) [Example 193]
19.3 | Cc1c(C#N)cccc1[C@@H](C)NC(=O)c1cn([C@H]2[C@H](C)C2(F)F)c(=O)cc1N[C@H]1[C@@H]2CN(C)C[C@@H]21 (single isomer, unassigned) [Example 194]
5.44 | C[C@@H]1[C@@H](n2cc(C(=O)N[C@H](C)c3cccc(C(C)(F)F)c3F)c(N[C@H]3[C@@H]4CN(C)C[C@@H]43)cc2=O)C1(F)F (single isomer, unassigned) [Example 195]
43.2 | C[C@@H](NC(=O)c1cn([C@H]2[C@H](C)C2(F)F)c(=O)cc1N[C@H]1[C@@H]2CN(C)C[C@@H]21)c1cccc(C(C)(F)F)c1F (single isomer, unassigned) [Example 196]
16.7 | C[C@@H](NC(=O)c1cn([C@H]2CC2(F)F)c(=O)cc1N[C@H]1[C@@H]2CN(C)C[C@@H]21)c1cccc(C(F)(F)F)c1F (single isomer, unassigned) [Example 200]
19.5 | C[C@@H](NC(=O)c1cn([C@H]2CC2(F)F)c(=O)cc1N[C@H]1[C@@H]2CN(C)C[C@@H]21)c1cccc(C(C)(F)F)c1F (single isomer, unassigned) [Example 202]

Further lines, the compound ahead of its results:

Structure (SMILES) | IC50 [nM]
Cc1c([C@@H](C)NC(=O)c2cn(C3CCOCC3)c(=O)cc2N[C@H]2[C@@H]3C[C@H]2CN(C)C3)cccc1C(F)(F)F (single isomer, unassigned) [Example 23] | 47.1
Cc1c([C@@H](C)NC(=O)c2cn(C3CCOCC3)c(=O)cc2N[C@@H]2[C@@H]3CC[C@H]2CN(C)C3)cccc1C(F)(F)F (single isomer, unassigned) [Example 31] | 27.6
Cc1c([C@@H](C)NC(=O)c2cn(C3CCOCC3)c(=O)cc2N[C@H]2[C@@H]3CC[C@H]2CN(C)C3)cccc1C(F)(F)F (single isomer, unassigned) [Example 32] | 58.2
Cc1c([C@@H](C)NC(=O)c2cn(C3CCOCC3)c(=O)cc2N[C@@H]2C[C@@H]3CC[C@H]2N3C)cccc1C(F)(F)F (single isomer, unassigned) [Example 37] | 32.9
Cc1c([C@@H](C)NC(=O)c2cn(C3CCOCC3)c(=O)cc2N[C@H]2C[C@H]3CC[C@@H]2N3C)cccc1C(F)(F)F (single isomer, unassigned) [Example 38] | 45.8
Cc1c([C@@H](C)NC(=O)c2cn(C3CCOCC3)c(=O)cc2N[C@H]2CCN(C)C3(CC3)C2)cccc1C(F)(F)F (single isomer, unassigned) [Example 39] | 43.7
Cc1c([C@@H](C)NC(=O)c2cn(C3CCOCC3)c(=O)cc2N[C@@H]2CCN(C)C3(CC3)C2)cccc1C(F)(F)F (single isomer, unassigned) [Example 40] | 11.8
C[C@@H](NC(=O)c1cn(C2(C(F)F)CC2)c(=O)cc1N[C@@H]1CCN(C)C[C@@H]1F)c1cccc(C(F)F)c1F (single isomer, unassigned) [Example 67] | 10.6
C[C@@H](NC(=O)c1cn(C2(C(F)F)CC2)c(=O)cc1N[C@H]1CCN(C)C[C@H]1F)c1cccc(C(F)F)c1F (single isomer, unassigned) [Example 68] | 14.3
C[C@@H](NC(=O)c1cn(C2(C(F)F)CC2)c(=O)cc1NC1CCN(C)CC1)c1ccc(F)c(C(F)(F)F)c1 (single isomer, unassigned) [Example 167] | > 10000
C[C@H](NC(=O)c1cn(C2(C(F)F)CC2)c(=O)cc1NC1CCN(C)CC1)c1ccc(F)c(C(F)(F)F)c1 (single isomer, unassigned) [Example 168] | 561
Cc1cc([C@H](C)NC(=O)c2cn(C3(C(F)F)CC3)c(=O)cc2NC2CCN(C)CC2)cc(C(F)(F)F)n1 (single isomer, unassigned) [Example 172] | > 10000
C[C@@H](NC(=O)c1cn(C23CC(C2)C3)c(=O)cc1N[C@H]1[C@@H]2CN(C)C[C@@H]21)c1cccc(C#N)c1Cl (single isomer, unassigned) [Example 177] | 55.6
C[C@H](NC(=O)c1cn(C23CC(C2)C3)c(=O)cc1N[C@H]1[C@@H]2CN(C)C[C@@H]21)c1cccc(C#N)c1Cl (single isomer, unassigned) [Example 178] | > 10000
C[C@@H]1[C@@H](n2cc(C(=O)N[C@H](C)c3cccc(C(F)(F)F)c3F)c(N[C@H]3[C@@H]4CN(C)C[C@@H]43)cc2=O)C1(F)F (single isomer, unassigned) [Example 197] | 31.7
C[C@@H](NC(=O)c1cn([C@H]2[C@H](C)C2(F)F)c(=O)cc1N[C@H]1[C@@H]2CN(C)C[C@@H]21)c1cccc(C(F)(F)F)c1F (single isomer, unassigned) [Example 198] | 3.41
C[C@@H](NC(=O)c1cn([C@@H]2CC2(F)F)c(=O)cc1N[C@H]1[C@@H]2CN(C)C[C@@H]21)c1cccc(C(F)(F)F)c1F (single isomer, unassigned) [Example 199] | 10.1
C[C@@H](NC(=O)c1cn([C@@H]2CC2(F)F)c(=O)cc1N[C@H]1[C@@H]2CN(C)C[C@@H]21)c1cccc(C(C)(F)F)c1F (single isomer, unassigned) [Example 201] | 14
C[C@@H](NC(=O)c1cn(C23CC(C2)C3)c(=O)cc1N[C@H]1CCN(C)C[C@H]1F)c1cccc(C(F)F)c1F (single isomer, unassigned) [Example 203] | 4.6
C[C@@H](NC(=O)c1cn(C23CC(C2)C3)c(=O)cc1N[C@@H]1CCN(C)C[C@@H]1F)c1cccc(C(F)F)c1F (single isomer, unassigned) [Example 204] | 3.61

— patent US20230348424A1, “HETEROCYCLIC COMPOUNDS AND METHODS OF USE” (Schrödinger, Inc., priority 2022, published 2023)
